# Data: ChEMBL document CHEMBL5625267, “Glycosidase-activated H2S donorsto enhance chemotherapy efficacy” (Bioorg Med Chem Lett, 2024)
# The source made the active and inactive calls. The rule behind the calls is not given here.
# How the values were obtained:
# [1] = tested on: HeLa; experiment: Antiproliferative activity against human HeLa cells assessed as cell viability at 50 uM incubated for 24 hrs by MTT assay relative to control; format: functional; conditions: read-out: Activity
# [2] = tested on: HepG2; experiment: Antiproliferative activity against human HepG2 cells assessed as cell viability at 50 uM incubated for 24 hrs by MTT assay relative to control; format: functional; conditions: read-out: Activity
# [3] = Antiproliferative activity against mouse 3T3 cells assessed as cell viability at 50 uM incubated for 24 hrs by MTT assay relative to control; format: toxicity, cell-based; conditions: NIH3T3 cells, read-out: Activity
# [4] = tested on: HeLa; experiment: Antiproliferative activity against human HeLa cells assessed as cell viability at 80 uM incubated for 24 hrs by MTT assay relative to control; format: functional; conditions: read-out: Activity
# [5] = tested on: HepG2; experiment: Antiproliferative activity against human HepG2 cells assessed as cell viability at 80 uM incubated for 24 hrs by MTT assay relative to control; format: functional; conditions: read-out: Activity
# [6] = Antiproliferative activity against mouse 3T3 cells assessed as cell viability at 80 uM incubated for 24 hrs by MTT assay relative to control; format: toxicity, cell-based; conditions: NIH3T3 cells, read-out: Activity
# [7] = tested on: HepG2; experiment: Induction of apoptosis in human HepG2 cells at 80 uM incubated for 24 hrs by annexin V-FITC/propidium iodide staining based flow cytometry analysis relative to control; format: functional
# [8] = tested on: HeLa; experiment: Induction of apoptosis in human HeLa cells at 80 uM incubated for 24 hrs by annexin V-FITC/propidium iodide staining based flow cytometry analysis relative to control; format: functional
# [9] = Release of H2S in PBS at 50 uM at pH 7.4; format: physicochemical; conditions: buffer, pH 7.4, 50 µM
# [10] = tested on: HeLa; experiment: Induction of apoptosis in human HeLa cells assessed as viable cells at 80 uM incubated for 24 hrs by annexin V-FITC/propidium iodide staining based flow cytometry analysis (reference value: 91.7 %); format: functional; conditions: read-out: Activity
# [11] = tested on: HeLa; experiment: Induction of apoptosis in human HeLa cells assessed as early apoptotic cells at 80 uM incubated for 24 hrs by annexin V-FITC/propidium iodide staining based flow cytometry analysis (reference value: 3.59 %); format: functional
# [12] = tested on: HeLa; experiment: Induction of apoptosis in human HeLa cells assessed as late apoptotic cells at 80 uM incubated for 24 hrs by annexin V-FITC/propidium iodide staining based flow cytometry analysis (reference value: 3.95 %); format: functional
# [13] = tested on: HeLa; experiment: Induction of apoptosis in human HeLa cells assessed as necrotic cells at 80 uM incubated for 24 hrs by annexin V-FITC/propidium iodide staining based flow cytometry analysis (reference value: 0.71 %); format: functional
# [14] = tested on: HepG2; experiment: Induction of apoptosis in human HepG2 cells assessed as viable cells at 80 uM incubated for 24 hrs by annexin V-FITC/propidium iodide staining based flow cytometry analysis (reference value: 87.1 %); format: functional; conditions: read-out: Activity
# [15] = tested on: HepG2; experiment: Induction of apoptosis in human HepG2 cells assessed as early apoptotic cells at 80 uM incubated for 24 hrs by annexin V-FITC/propidium iodide staining based flow cytometry analysis (reference value: 1.03 %); format: functional
# [16] = tested on: HepG2; experiment: Induction of apoptosis in human HepG2 cells assessed as late apoptotic cells at 80 uM incubated for 24 hrs by annexin V-FITC/propidium iodide staining based flow cytometry analysis (reference value: 10.1 %); format: functional
# [17] = tested on: HepG2; experiment: Induction of apoptosis in human HepG2 cells assessed as necrotic cells at 80 uM incubated for 24 hrs by annexin V-FITC/propidium iodide staining based flow cytometry analysis (reference value: 1.63 %); format: functional
# [18] = tested on: HepG2; experiment: Cytotoxicity against human HepG2 cells assessed as cell viability at 2 ug/ml incubated for 24 hrs by MTT assay relative to control; format: functional; conditions: read-out: Activity
Activity [9],Structure (SMILES),viability at 50 µM [1],viability at 50 µM [2],"viability at 24 h, 50 µM [3]",viability at 80 µM [4],viability at 80 µM [5],"viability at 24 h, 80 µM [6]",Activity [7],Activity [8],viability at 80 µM [10],Activity [11],Activity [12],Activity [13],viability at 80 µM [14],Activity [15],Activity [16],Activity [17],viability at 2 µg/mL [18]
36%,OC[C@H]1O[C@@H](Oc2ccc(COC(=S)Nc3ccc(C(F)(F)F)cc3)cc2)[C@H](O)[C@@H](O)[C@H]1O,92%,78.1%,89.8%,82.1%,68.9%,86.2%,inactive,inactive,,,,,,,,,
36%,Cc1ccc(NC(=S)OCc2ccc(O[C@@H]3O[C@H](CO)[C@@H](O)[C@H](O)[C@H]3O)cc2)cc1,86.9%,91%,102%,90.8%,85.3%,95%,inactive,inactive,,,,,,,,,
36%,OC[C@H]1O[C@@H](Oc2ccc(COC(=S)Nc3ccc(C(F)(F)F)cc3)cc2F)[C@H](O)[C@@H](O)[C@H]1O,94.6%,88.9%,97.3%,96%,86%,87.9%,inactive,inactive,,,,,,,,,
36%,OC[C@H]1O[C@H](Oc2ccc(COC(=S)Nc3ccc(C(F)(F)F)cc3)cc2F)[C@@H](O)[C@@H](O)[C@@H]1O,78.7%,45.7%,86.3%,72.6%,49%,83.9%,24.4%,40.6%,56.8%,8.14%,23.9%,8.15%,76.3%,1.03%,18.3%,3.44%,
36%,OC[C@H]1O[C@@H](Oc2ccc(COC(=S)Nc3ccc(C(F)(F)F)cc3)cc2Br)[C@H](O)[C@@H](O)[C@@H]1O,95.3%,87.3%,93.5%,92.1%,61.8%,92.7%,inactive,inactive,,,,,,,,,
,COc1cccc2c1C(=O)c1c(O)c3c(c(O)c1C2=O)C[C@@](O)(C(=O)CO)C[C@@H]3O[C@H]1C[C@H](N)[C@H](O)[C@H](C)O1 [DOXORUBICIN],,,,,,,,,,,,,,,,,100%
